From BindingDB's records for doi:10.1021/jm900472s (Burnham Institute For Medical Research, 2009)

Molecular target: Apoptosis regulator Bcl-2 (Homo sapiens, UniProt P10415)
Test: Fluorescence Polarization Assay
Details: pH 7.4; 23 °C
Experimental: FPAs were performed using various concentrations of GST-Bcl-2 family proteins, incubated with FITC-conjugated peptide substrates in the presence of inhibitor compound. […] IC50 was determined by fitting the experimental data to a sigmoidal dose-response nonlinear regression model (SigmaPlot 10.0.1, Systat Software, Inc., San Jose, CA). Data reported are the mean of three independent experiments.

Sequence of Apoptosis regulator Bcl-2 (P10415 whole entry): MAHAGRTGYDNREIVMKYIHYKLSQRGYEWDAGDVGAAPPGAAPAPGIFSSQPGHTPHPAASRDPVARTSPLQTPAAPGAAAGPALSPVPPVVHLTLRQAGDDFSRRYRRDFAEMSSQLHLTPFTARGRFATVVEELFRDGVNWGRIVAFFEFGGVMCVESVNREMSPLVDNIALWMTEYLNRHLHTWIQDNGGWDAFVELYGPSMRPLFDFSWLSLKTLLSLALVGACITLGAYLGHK

Cc1cc2c(C(C)C)c(O)c(O)cc2c(O)c1-c1c(C)cc2c(C(C)C)c(O)c(O)cc2c1O [Apogossypol]
IC50: 4.3 µM
